Measured values: patent US6770599B2, “Tetrazole derivatives” (Bayer CropScience KK, priority 2000, dated 2004)

What was measured:
[1] = system: Rotala indica (indian toothcup); assay: Test Example 5: synergistic action by water surface application, ROTIN; type: in vivo; details: 75 g a.i./ha, run6, 4 weeks after application
Text: (§1) Test for Synergistic Action by Water Sureface Application
(§2) In a greenhouse, paddy soil was filled in pots (250 cm^2), and seeds of weed (barnyardgrass, bulrush, monochoria, falsepimpemel, indian toothcup, waterwort and flatstage) were inoculated in the surface layer of the soil in the pots under wet conditions and covered with soil. All of the weed species were individually inoculated in each pot. Each pot was watered to 2 cm in depth and the depth was kept during the test period. When the weeds grew up to 1.5-2.2 leaf stage (or pair), a predetermined amount of the compound as a testing solution prepared in the same manner as the above-mentioned Test Example 4 was applied to the pots by water surface treatment method. The herbicidal effect was evaluated at 4 weeks after the application on the same scale as in thetest method of Test Example 4.
(§3) Synergistic action of Test Example 4 and Test Example 5 were evaluated by Colby's equation. [formula]
(§4) E: expected herbicidal activity at p+q g/ha
(§5) X: the percentage of herbicidal activity at p g/ha
(§6) Y: the percentage of herbicidal activity at q g/ha

[2] = system: Lindernia pyridaria (flasepimpernel); assay: Test Example 5: synergistic action by water surface application, LIDPY; type: in vivo; details: 75 g a.i./ha, run6, 4 weeks after application
Text: as §1, §2, §3, §4, §5, §6

Row | SMILES | melting point | Herbicidal efficacy, known herbicide [1] | Herbicidal efficacy, known herbicide [2]
1 | CCn1nnnc1SCc1c(S(C)(=O)=O)ccc(C(=O)C2C(=O)CCCC2=O)c1Cl | 67 to 71 °C |  | 
2 | Cn1nnnc1SCc1c(S(C)(=O)=O)ccc(C(=O)C2=C(Sc3ccccc3)CCCC2=O)c1Cl | 76 to 87 °C |  | 
3 | CCC1(CC2(c3cccc(Cl)c3)CO2)C(=O)c2ccccc2C1=O (racemic) [G, (RS)-2-[2-(3-chlorophenyl)2,3-epoxypropyl]-2-ethylindan-1,3-dione] |  | 60% | 60%
